The values that follow come from patent publication US10022382B2, “RNA polymerase I inhibitors and uses thereof” (Tel HaShomer Medical Research Infrastructure and Services …, priority 2013, dated 2018).

One may read the LD50 as the dose at which mortality reaches 50%. The IC50 is the concentration at which inhibition is half-maximal. Lower therefore signals greater potency. The ED50 is the dose at which the effect has come halfway, by size or by number of responders.

One series relates to POL-I. The following applies: human cancer cell lines; cited from earlier work.
The nature of series [1]: Toxicity (LD50, survival) in the EAE model, continuous administration. Format: in vivo. The following applies: C57BL/6J, mouse, in vivo, oral; EAE prevention model, continuous administration. The procedure:
(§1) The animals were evaluated for signs of acute toxicity and survival during the entire administration period in the EAE model.
(§2) The therapeutic index (LD50/ED50), which is also referred to herein as Safety Margin (SM), was then determined based on the EAE model.

The next series concerns C57BL/6J mice. The description is as above. Format: in vivo. The following applies: EAE prevention model. The procedure: as §1, §2
For series [2], the system named is Experimental Autoimmune Encephalomyelitis (EAE). The following applies: cited from earlier work.
A further series has as its system Mouse splenocytes. Description: XTT cell viability assay, PHA-stimulated splenocytes. The following applies: 72 hours; for IC50: Splenocyte; for IC50 / XTT IC50: mouse splenocytes, 25-400 nM. Format: cell-based. On the procedure: Cell viability was assessed by the 2,3 bis [2-Methoxy-4-nitro-5-sulfophenyl]-2H-tetrazolium-5-carboxanilide (XTT) assay (Biological Industries, Kibbutz Beit Hemeek, Israel), which measures the reduction of a tetrazolium component (XTT) into soluble formazan product by the mitochondria of viable cells. The intensity of the dye obtained is proportional to the number of metabolic active cells. On the day of measurement, cells were washed and XTT was added according to the manufacturer's instructions. Plates were incubated at 37° C. for 2-5 hours. The absorbance was read at 450 nm.
Mouse splenocytes were removed and spleenocytes were plated (250,000 cell/well) in DMEM+10% FCS+P/S+Q and […] Phytohaemaglutinin (PHA), in the presence of elevated concentrations (25-400 nM) of RAM-0 (Compound 1), RAM-1 (Compound 4), RAM-2 (Compound 2) or RAM-3 (Compound 3) for 72 hours. Cells cultured without PHA served as control. Control mice at zero are mice splenocytes with PHA stimulation.
Following incubation, cell viability was determined by XTT assay, as described above.

Series [3] deals with MOG35-55 EAE in C57BL/6J mice. Briefly: MOG35-55 EAE prevention (immunization) model. The following applies: Mus musculus. Format: in vivo. On the procedure: Mice: Eight-weeks-old female C57BL/6J mice (15-20 g, Harlan laboratories, Rehovot, Israel) were used in all experiments. Animal maintenance and experimental protocols were performed in accordance with the Israeli Council for Animal Care guidelines and approved by Sheba IRB Animal Care Committee. Mice were kept in an SPF environment, maintained on a 12-h light/dark cycle at a constant environmental temperature with free access to food and water in their home cages.
Induction of MOG35-55 EAE (Prevention Model): EAE (Experimental Autoimmune Encephalomyelitis) was induced in 8 week old female C57BL/6J mice (15-20 g, Harlan laboratories, Rehovot, Israel) by immunization with an emulsion containing 300 μg of purified myelin oligodendrocyte glycoprotein (MOG) peptide ([…], corresponding to residues 35-55; obtained from (Difco, Detroit, Mich.) in saline and an equal volume of complete Freund's adjuvant containing 5 mg H37RA (Difco, Detroit, Mich.). 0.2 ml of the inoculum was injected subcutaneously. In addition, 300 ng of Bordetella pertusis toxin (Sigma) in 0.2 ml saline was injected intraperitoneally at the day of induction and two days later.
Oral gavages with the tested compound, at various concentrations ranging from 3 mg/kg-30 mg/kg in PBS or 50 mM NaH2PO4 (PH 4.5), or with vehicle only, were initiated at day of immunization. Mice were monitored daily for clinical signs of EAE, scored as: 1, flaccid tail; 2, forelimb weakness and poor righting ability; 3, hind limb paralysis; 4, quadriplegia; 5, moribund. Animal reaching a score of 4 were scarified using CO2.
Treatment was stopped once 30% of the vehicle-treated animals scored 1 on the EAE score. […]
The therapeutic index (LD50/ED50), which is also referred to herein as Safety Margin (SM), was then determined based on the EAE model. ED50 is the minimum effective dose observed for 50% of the tested animals.

A further series is described as follows: Solubility in mQ water. It is filed as physicochemical. The following applies: 50 mg in 0.5 mL mQ water, room temperature. On the procedure:
The solubility of Compounds 1 and 10 was determined by dissolving 50 mg of the tested compound in 0.5 mL of mQ water, at room temperature.

In the case of `Cc1cnc(CNC(=O)c2c(=O)c3ccc(N4CCCN(C)CC4)nc3n3c2sc2ccccc23)cn1` [Compound 1, 2-(4-methyl-1,4-diazepan-1-yl)-N-((5-methylpyrazin-2-yl)methyl)-5-oxo-5H-benzo[4,5]thiazolo[3,2-a][1,8]naphthyridine-6-carboxamide, reference compound], in the series with POL-I, the POL-I activity result is given as “inhibited POL-I activity”. Besides, the LD50 in series [1] worked out at 25 mg/kg. For the same molecule, the “SM (therapeutic index LD50/ED50)” value in the series on C57BL/6J mice is on record as 2. For the same molecule, the EAE disease severity entry in series [2] (administered at clinical disease onset) is “reduce the disease severity”. Also, the EAE prevention result in series [2] (administered at disease induction) was “prevent animal Experimental Autoimmune Encephalomyelitis (EAE)”. This molecule also came in with an IC50 in the series on Mouse splenocytes of 50 nM. This molecule also registered an ED50 in series [3] of 12.5 mg/kg. Further, the solubility result in the series “Solubility in mQ water” was “dissolved only in a pH 4.5 buffered solution after vigorous stirring for 30 minutes”.

As to `C/N=c1/c(C(=O)NCc2cnc(C)cn2)c2sc3ccccc3n2c2nc(N3CCCN(C)CC3)ccc12` [Compound 5, (E/Z)-2-(4-methyl-1,4-diazepan-1-yl)-5-(methylimino)-N-((5-methylpyrazin-2-yl)methyl)-5H-benzo[4,5]thiazolo[3,2-a][1,8]naphthyridine-6-carboxamide], in the series on Mouse splenocytes, the IC50 worked out at 50 nM.

Consider `CCC/N=c1/c(C(=O)NCc2cnc(C)cn2)c2sc3ccccc3n2c2nc(N3CCCN(C)CC3)ccc12` [Compound 6], for which, in the series on Mouse splenocytes, 50 nM corresponded to half-maximal inhibition (IC50).

Regarding `CO/N=c1/c(C(=O)NCc2cnc(C)cn2)c2sc3ccccc3n2c2nc(N3CCCN(C)CC3)ccc12` [Compound 8], the IC50 in the series on Mouse splenocytes amounted to 50 nM.

Regarding `Cc1cnc(CNc2nc(=O)nc3c4ccc(N5CCCN(C)CC5)nc4n4c(sc5ccccc54)c2-3)cn1` [Compound 9], the “XTT IC50” value in the series with Mouse splenocytes is listed as “No Effect”.

For `Cc1cnc(CNC(=O)c2c(Cl)c3ccc(N4CCCN(C)CC4)nc3[n+]3c2sc2ccccc23)cn1` [Compound 2, 5-chloro-2-(4-methyl-1,4-diazepan-1-yl)-6-(((5-methylpyrazin-2-yl)methyl)carbamoyl)benzo[4,5]thiazolo[3,2-a][1,8]naphthyridin-12-ium], in the series on Mouse splenocytes, the “suppression of splenocyte proliferation compared to Compound 1 (XTT)” value is on record as “no substantial effect” and the “XTT IC50” value is “No Effect”.

The molecule `Cc1cnc(CNC(=O)c2/c(=N/C(C)C)c3ccc(N4CCCN(C)CC4)nc3n3c2sc2ccccc23)cn1` [Compound 7] had an IC50 with Mouse splenocytes of 50 nM.

With `Cc1cnc(CNC(=O)c2c(=N)c3ccc(N4CCCN(C)CC4)nc3n3c2sc2ccccc23)cn1` [Compound 4, 5-imino-2-(4-methyl-1,4-diazepan-1-yl)-N-((5-methylpyrazin-2-yl)methyl)-5H-benzo[4,5]thiazolo[3,2-a][1,8]naphthyridine-6-carboxamide], in the series with Mouse splenocytes, the “suppression of splenocyte proliferation compared to Compound 1 (XTT)” value is “dose response curve similar to RAM-0 (Compound 1)” and half-maximal inhibition (IC50) was put at 50 nM.

For the molecule `Cc1cnc(CNC(=O)c2c(=S)c3ccc(N4CCCN(C)CC4)nc3n3c2sc2ccccc23)cn1` [Compound 3, 2-(4-methyl-1,4-diazepan-1-yl)-N-((5-methylpyrazin-2-yl)methyl)-5-thioxo-5H-benzo[4,5]thiazolo[3,2-a][1,8]naphthyridine-6-carboxamide], in the series with Mouse splenocytes, the “effectiveness in suppressing proliferation compared to Compound 1” value amounted to 6 folds and half-maximal inhibition (IC50) was put at 20 nM.
